Reference: US20140135310A1, “SULPHONAMIDE DERIVATIVES OF ALICYCLIC AMINES FOR THE TREATMENT OF CENTRAL NERVOUS SYSTEM DISEASES” (Adamed Sp. z o.o., priority 2011, published 2014)

Experiments:
[1] = target: T1, serotonin transporter (SERT) (Homo sapiens, UniProt P31645); experiment: Radioligand binding assay, serotonin transporter (SERT); conditions: for inhibition at 1 µM / SERT [%]: binding assay, test compound 1×10^−6 M
T1 construct: expressed in transfected cells; host or cells: CHO cells
Procedure, shortened: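 Radioligand competition binding with scintillation detection; specific binding is total minus binding under excess unlabelled ligand. Reported as % of control specific binding or % inhibition; IC50 from Hill-equation non-linear regression of competition curves, and Ki via Cheng-Prusoff using radioligand concentration and Scatchard-derived KD.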

[2] = target: dopaminergic receptors D2 (Homo sapiens, UniProt P14416); experiment: Radioligand binding assay, dopaminergic D2 receptors; conditions: for inhibition at 1 µM / D2 [%]: binding assay, test compound 1×10^−6 M
dopaminergic receptors D2, sequence (P14416 whole entry): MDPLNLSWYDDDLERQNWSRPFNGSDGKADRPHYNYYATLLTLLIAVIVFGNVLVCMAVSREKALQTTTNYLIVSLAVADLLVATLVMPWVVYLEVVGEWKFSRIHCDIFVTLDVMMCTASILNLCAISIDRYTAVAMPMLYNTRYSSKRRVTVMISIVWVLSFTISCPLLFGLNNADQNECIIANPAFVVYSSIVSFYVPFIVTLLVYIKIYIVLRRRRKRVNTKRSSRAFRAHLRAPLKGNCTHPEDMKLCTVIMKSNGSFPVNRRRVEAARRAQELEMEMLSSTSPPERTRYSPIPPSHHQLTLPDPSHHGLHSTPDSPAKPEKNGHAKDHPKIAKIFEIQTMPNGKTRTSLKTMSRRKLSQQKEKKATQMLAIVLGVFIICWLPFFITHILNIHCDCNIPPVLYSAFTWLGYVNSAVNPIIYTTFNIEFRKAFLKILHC
Procedure, shortened: (§1)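 Competition radioligand binding at human D2, D3 and D4.4 receptors, detected by scintillation counting; nonspecific binding defined with excess unlabelled ligand. Results as percent inhibition of control specific binding; IC50 by Hill-equation nonlinear regression; Ki via Cheng-Prusoff, with radioligand KD from Scatchard plot.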

5-HT7 receptor = target: T2, 5-HT7 receptor (Homo sapiens, UniProt P34969); experiment: Radioligand binding assay, serotoninergic 5-HT7 receptors; conditions: binding assay result in %, Table 5a
T2 construct: purchased PerkinElmer
T2 sequence (P34969 whole entry): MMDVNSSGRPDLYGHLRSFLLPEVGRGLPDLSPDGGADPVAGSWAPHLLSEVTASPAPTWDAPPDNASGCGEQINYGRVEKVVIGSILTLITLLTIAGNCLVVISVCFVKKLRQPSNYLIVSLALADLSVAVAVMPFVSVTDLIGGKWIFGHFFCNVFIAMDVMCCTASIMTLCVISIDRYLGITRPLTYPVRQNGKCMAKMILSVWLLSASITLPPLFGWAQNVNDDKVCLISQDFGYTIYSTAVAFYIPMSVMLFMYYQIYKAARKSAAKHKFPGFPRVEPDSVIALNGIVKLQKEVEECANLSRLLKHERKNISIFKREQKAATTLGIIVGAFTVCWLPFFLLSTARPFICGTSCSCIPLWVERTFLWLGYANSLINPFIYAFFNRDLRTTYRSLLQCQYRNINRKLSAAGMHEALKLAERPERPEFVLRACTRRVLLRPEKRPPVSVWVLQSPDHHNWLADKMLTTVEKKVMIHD
Procedure, shortened: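 Competition binding at human 5-HT7 receptors with a radioligand, detected by scintillation counting; non-specific binding was defined with excess unlabelled ligand. IC50 came from Hill-equation fits of competition curves, and Ki from Cheng–Prusoff using radioligand concentration and Scatchard-derived KD.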

σ receptors = experiment: Radioligand binding assay, σ receptors; conditions: rat cerebral cortex, [3H]DTG 8 nM
Procedure, shortened: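 Values derive from radioligand displacement, with non-specific binding defined by excess cold ligand and detection by scintillation. Hill-fit IC50s were converted to Ki via Cheng-Prusoff using Scatchard-derived Kd; percent inhibition of control specific binding also reported.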

α2C adrenergic receptors = target: T3, α2C adrenergic receptors (Homo sapiens, UniProt P18825); experiment: Radioligand binding assay, adrenergic α2C receptors; conditions: test compound 1×10^−6 M
T3 construct: expressed in transfected cells; host or cells: CHO cells
T3 sequence (P18825 1-462): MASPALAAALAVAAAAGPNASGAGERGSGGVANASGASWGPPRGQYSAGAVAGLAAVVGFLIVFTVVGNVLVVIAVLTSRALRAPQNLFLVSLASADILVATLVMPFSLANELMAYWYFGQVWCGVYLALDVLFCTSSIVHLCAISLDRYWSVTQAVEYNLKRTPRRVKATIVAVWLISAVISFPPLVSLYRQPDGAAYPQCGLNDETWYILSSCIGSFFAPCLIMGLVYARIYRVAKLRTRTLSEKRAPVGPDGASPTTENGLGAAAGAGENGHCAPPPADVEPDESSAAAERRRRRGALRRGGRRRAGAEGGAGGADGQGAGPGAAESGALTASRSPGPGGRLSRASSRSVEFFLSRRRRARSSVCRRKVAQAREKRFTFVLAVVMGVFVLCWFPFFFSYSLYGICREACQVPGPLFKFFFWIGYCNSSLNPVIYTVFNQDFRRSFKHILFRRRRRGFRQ
Procedure, shortened: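 Competitive radioligand binding at human α2C receptors, with scintillation counting. Nonspecific binding defined with excess unlabelled ligand; results given as % inhibition of control specific binding. IC50 from Hill-equation fits of competition curves; Ki via Cheng-Prusoff using radioligand concentration and Scatchard-derived KD.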

receptors D4.4 = target: T4, receptors D4.4 (Homo sapiens, UniProt P21917); experiment: Radioligand binding assay, dopaminergic D4 (D4.4) receptors; conditions: test compound 1×10^−6 M
T4 sequence (P21917 1-419): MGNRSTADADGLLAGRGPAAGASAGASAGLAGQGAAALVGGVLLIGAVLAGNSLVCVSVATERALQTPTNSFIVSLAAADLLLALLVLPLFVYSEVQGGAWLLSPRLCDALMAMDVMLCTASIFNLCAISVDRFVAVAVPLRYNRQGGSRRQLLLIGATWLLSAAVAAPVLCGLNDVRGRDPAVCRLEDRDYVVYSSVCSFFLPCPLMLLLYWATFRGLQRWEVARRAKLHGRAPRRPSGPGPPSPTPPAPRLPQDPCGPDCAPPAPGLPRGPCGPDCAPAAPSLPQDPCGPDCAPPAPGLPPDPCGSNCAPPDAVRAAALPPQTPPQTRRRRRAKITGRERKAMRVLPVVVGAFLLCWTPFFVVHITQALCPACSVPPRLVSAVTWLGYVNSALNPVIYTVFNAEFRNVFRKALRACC
Procedure, shortened: as §1

[3] = target: T5, H1 histaminergic receptors (Homo sapiens, UniProt P35367); experiment: Radioligand binding assay, histaminergic H1 receptors; conditions: human recombinant (HEK-293 cells), [3H]pyrilamine 1 nM
T5 construct: expressed in transfected cells; host or cells: HEK-293 cells
T5 sequence (P35367 whole entry): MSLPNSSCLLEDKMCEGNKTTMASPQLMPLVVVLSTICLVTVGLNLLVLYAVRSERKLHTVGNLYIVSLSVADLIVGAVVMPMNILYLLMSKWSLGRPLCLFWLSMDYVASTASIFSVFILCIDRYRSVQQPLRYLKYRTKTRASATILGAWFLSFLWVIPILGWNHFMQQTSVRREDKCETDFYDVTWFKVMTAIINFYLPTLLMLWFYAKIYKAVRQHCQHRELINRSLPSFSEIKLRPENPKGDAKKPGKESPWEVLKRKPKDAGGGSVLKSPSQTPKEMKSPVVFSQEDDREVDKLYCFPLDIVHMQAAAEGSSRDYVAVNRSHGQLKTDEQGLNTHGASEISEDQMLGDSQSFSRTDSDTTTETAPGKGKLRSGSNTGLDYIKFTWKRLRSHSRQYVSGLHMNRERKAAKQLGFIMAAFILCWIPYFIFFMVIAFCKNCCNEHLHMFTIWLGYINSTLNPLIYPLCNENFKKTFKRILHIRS
Procedure, shortened: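 Competition binding at human H1 receptors; specific binding taken as total minus non-specific binding in excess unlabelled ligand, scintillation read-out. IC50 from Hill-equation fit of competition curves; Ki by Cheng-Prusoff using radioligand concentration and Kd (from Scatchard plot).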

5-HT2A receptor = target: T6, 5-HT2A receptor (Homo sapiens, UniProt P28223); experiment: Radioligand binding assay, serotoninergic 5-HT2A receptors; conditions: for inhibition at 1 µM / 5-HT2A [%]: binding assay result in %, Table 5a
T6 construct: purchased PerkinElmer
T6 sequence (P28223 whole entry): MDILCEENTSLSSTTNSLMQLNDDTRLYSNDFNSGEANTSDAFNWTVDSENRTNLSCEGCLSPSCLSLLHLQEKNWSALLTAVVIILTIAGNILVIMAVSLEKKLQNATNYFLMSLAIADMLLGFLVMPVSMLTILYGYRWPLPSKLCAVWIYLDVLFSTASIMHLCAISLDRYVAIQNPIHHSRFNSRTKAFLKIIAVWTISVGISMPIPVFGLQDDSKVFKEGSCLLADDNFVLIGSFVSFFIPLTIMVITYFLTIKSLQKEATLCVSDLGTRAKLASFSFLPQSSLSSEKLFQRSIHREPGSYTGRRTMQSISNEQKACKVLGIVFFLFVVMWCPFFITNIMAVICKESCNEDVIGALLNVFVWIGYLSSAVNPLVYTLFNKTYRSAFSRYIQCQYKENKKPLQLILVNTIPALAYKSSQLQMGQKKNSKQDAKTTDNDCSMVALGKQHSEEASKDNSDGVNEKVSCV
Procedure, shortened: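 Radioligand competition binding with scintillation counting; nonspecific binding defined by excess unlabelled ligand. Data as percent inhibition of control specific binding. IC50 by Hill-equation fit of competition curves; Ki by Cheng-Prusoff, with radioligand Kd from Scatchard plot.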

T1 sequence (P31645 whole entry): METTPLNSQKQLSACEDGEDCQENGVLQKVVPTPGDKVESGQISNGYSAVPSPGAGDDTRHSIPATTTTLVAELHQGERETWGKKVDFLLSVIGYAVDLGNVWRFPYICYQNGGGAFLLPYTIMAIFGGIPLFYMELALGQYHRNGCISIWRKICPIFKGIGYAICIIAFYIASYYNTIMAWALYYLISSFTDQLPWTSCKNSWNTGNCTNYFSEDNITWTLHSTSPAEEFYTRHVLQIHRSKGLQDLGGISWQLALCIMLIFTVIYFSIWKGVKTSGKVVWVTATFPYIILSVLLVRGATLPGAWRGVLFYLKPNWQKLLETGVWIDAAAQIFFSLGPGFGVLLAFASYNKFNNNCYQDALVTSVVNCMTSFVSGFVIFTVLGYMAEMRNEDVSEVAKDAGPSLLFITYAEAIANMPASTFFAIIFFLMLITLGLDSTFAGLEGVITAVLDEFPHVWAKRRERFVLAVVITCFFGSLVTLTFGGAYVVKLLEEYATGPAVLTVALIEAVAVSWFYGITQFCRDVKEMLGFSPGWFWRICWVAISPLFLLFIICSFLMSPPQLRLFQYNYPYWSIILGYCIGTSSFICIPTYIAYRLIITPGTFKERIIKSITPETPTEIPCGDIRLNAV

SMILES: Cc1cc(S(=O)(=O)N[C@@H]2CCN(CCCc3noc4cc(F)ccc34)C2)c(C)s1 [Compound 222, N-[(3R)-1-[3-(6-Fluoro-1,2-benzoxazol-3-yl)propyl]pyrrolidin-3-yl]-2,5-dimethyl-thiophene-3-sulphonamide]
- inhibition at 1 µM [1]: 2%
- inhibition at 1 µM [2]: 97%
- inhibition at 1 µM (5-HT7 receptor): 102%
- σ [%] (σ receptors): 95%
- inhibition at 1 µM (α2C adrenergic receptors): 77%
- inhibition at 1 µM (receptors D4.4): 98%
- inhibition at 1 µM [3]: 79%
- inhibition at 1 µM (5-HT2A receptor): 99%

SMILES: O=S(=O)(NCC1CN(CCCc2noc3cc(F)ccc23)C1)c1ccc(-c2ccccc2)cc1 [Compound 135, N-[[1-[3-(6-Fluoro-1,2-benzoxazol-3-yl)propyl]azetidin-3-yl]methyl]-4-phenyl-benzenesulphonamide]
- inhibition at 1 µM [1]: 68%
- inhibition at 1 µM [2]: 92%
- inhibition at 1 µM (5-HT7 receptor): 97%
- σ [%] (σ receptors): 94%
- inhibition at 1 µM (α2C adrenergic receptors): 95%
- inhibition at 1 µM (receptors D4.4): 60%
- inhibition at 1 µM [3]: 79%
- inhibition at 1 µM (5-HT2A receptor): 99%

SMILES: O=S(=O)(NC1CCN(CCCc2c[nH]c3ccc(F)cc23)C1)c1cccc2ccccc12 (stereo not drawn) [Compound 79, N-[1-[3-(5-Fluoro-1H-indol-3-yl)propyl]pyrrolidin-3-yl]naphthalene-1-sulphonamide]
- inhibition at 1 µM [1]: 105%
- Ki ([1]; read-out: Inhibition constants Ki for SERT, SERT): 0.7 nM
- inhibition at 1 µM [2]: 95%
- inhibition at 1 µM (5-HT7 receptor): 96%
- σ [%] (σ receptors): 67%
- inhibition at 1 µM (α2C adrenergic receptors): 96%
- inhibition at 1 µM (receptors D4.4): 92%
- inhibition at 1 µM [3]: 72%
- inhibition at 1 µM (5-HT2A receptor): 99%

SMILES: Cc1cc(S(=O)(=O)NC2CCN(CCCc3noc4cc(F)ccc34)C2)c(C)s1 (stereo not drawn) [Compound 221, N-[1-[3-(6-Fluoro-1,2-benzoxazol-3-yl)propyl]pyrrolidin-3-yl]-2,5-dimethyl-thiophene-3-sulphonamide]
- inhibition at 1 µM [1]: 67%
- inhibition at 1 µM [2]: 97%
- inhibition at 1 µM (5-HT7 receptor): 95%
- σ [%] (σ receptors): 83%
- inhibition at 1 µM (α2C adrenergic receptors): 88%
- inhibition at 1 µM (receptors D4.4): 93%
- inhibition at 1 µM [3]: 66%
- inhibition at 1 µM (5-HT2A receptor): 101%

SMILES: O=S(=O)(NC1CCN(CCCc2noc3cc(F)ccc23)C1)c1ccc(Cl)c(F)c1 (stereo not drawn) [Compound 11, 4-Chloro-3-fluoro-N-[1-[3-(6-fluoro-1,2-benzoxazol-3-yl)propyl]-pyrrolidin-3-yl]benzene-sulphonamide]
- inhibition at 1 µM [1]: -6%
- inhibition at 1 µM [2]: 89%
- inhibition at 1 µM (5-HT7 receptor): 97%
- σ [%] (σ receptors): 74%
- inhibition at 1 µM (α2C adrenergic receptors): 71%
- inhibition at 1 µM (receptors D4.4): 92%
- inhibition at 1 µM [3]: 37%
- inhibition at 1 µM (5-HT2A receptor): 100%

SMILES: O=S(=O)(N[C@@H]1CCN(CCCc2noc3cc(F)ccc23)C1)c1csc2ccccc12 [Compound 224, N-[(3R)-1-[3-(6-Fluoro-1,2-benzoxazol-3-yl)propyl]pyrrolidin-3-yl]benzothiophene-3-sulphonamide]
- inhibition at 1 µM [1]: 64%
- inhibition at 1 µM [2]: 98%
- Ki ([2]; read-out: Inhibition constants Ki for D2 receptors, D2): 8.7 nM
- inhibition at 1 µM (5-HT7 receptor): 103%
- σ [%] (σ receptors): 91%
- inhibition at 1 µM (α2C adrenergic receptors): 79%
- inhibition at 1 µM (receptors D4.4): 101%
- inhibition at 1 µM [3]: 60%
- Ki (5-HT2A receptor; read-out: Inhibition constants Ki, 5-HT2A): 1.6 nM

SMILES: Cc1cc(S(=O)(=O)N[C@H]2CCN(CCCc3noc4cc(F)ccc34)C2)c(C)s1 [Compound 223, N-[(3S)-1-[3-(6-Fluoro-1,2-benzoxazol-3-yl)propyl]pyrrolidin-3-yl]-2,5-dimethyl-thiophene-3-sulphonamide]
- inhibition at 1 µM [1]: 17%
- inhibition at 1 µM [2]: 89%
- inhibition at 1 µM (5-HT7 receptor): 100%
- σ [%] (σ receptors): 89%
- inhibition at 1 µM (α2C adrenergic receptors): 60%
- inhibition at 1 µM (receptors D4.4): 92%
- inhibition at 1 µM [3]: 52%
- inhibition at 1 µM (5-HT2A receptor): 99%

SMILES: O=S(=O)(NC1CN(CCOc2cccc3[nH]ccc23)C1)c1cccc(Cl)c1 [Compound 47, 3-Chloro-N-[1-[2-(1H-indol-4-yloxy)ethyl]azetidin-3-yl]benzene-sulphonamide]
- inhibition at 1 µM [1]: 6%
- inhibition at 1 µM [2]: 83%
- inhibition at 1 µM (5-HT7 receptor): 100%
- σ [%] (σ receptors): 44%
- inhibition at 1 µM (α2C adrenergic receptors): 80%
- inhibition at 1 µM (receptors D4.4): 80%
- inhibition at 1 µM [3]: -3%
- inhibition at 1 µM (5-HT2A receptor): 80%

SMILES: CC1(C)Cc2cccc(OCCN3CCC(NS(=O)(=O)c4ccc5ccccc5c4)CC3)c2O1 [Compound 110, N-[1-[2-[(2,2-Dimethyl-3H-benzofuran-7-yl)oxy]ethyl]-4-piperidine]naphthalene-2-sulphonamide]
- SERT [%] [1]: 39%
- D2 [%] [2]: 74%
- 5-HT7 [%] (5-HT7 receptor): 99%
- σ [%] (σ receptors): 56%
- α2C [%] (α2C adrenergic receptors): 98%
- D4.4 [%] (receptors D4.4): 42%
- H1 [%] [3]: 52%
- 5-HT2A [%] (5-HT2A receptor): 91%

SMILES: O=S(=O)(NC1CCN(CCOc2cccc3[nH]ccc23)CC1)c1ccccc1 [Compound 55, N-[1-[2-(1H-Indol-4-yloxy)ethyl]-4-piperidine]benzenesulphonamide]
- SERT [%] [1]: 6%
- D2 [%] [2]: 44%
- 5-HT7 [%] (5-HT7 receptor): 96%
- σ [%] (σ receptors): 37%
- α2C [%] (α2C adrenergic receptors): 99%
- D4.4 [%] (receptors D4.4): 31%
- H1 [%] [3]: 0%
- 5-HT2A [%] (5-HT2A receptor): 94%

SMILES: O=S(=O)(NC1CCN(CCCc2noc3cc(F)ccc23)C1)c1ccc2ccccc2c1 (stereo not drawn) [Compound 21, N-[1-[3-(6-Fluoro-1,2-benzoxazol-3-yl)propyl]pyrrolidin-3-yl]naphthalene-2-sulphonamide]
- inhibition at 1 µM [1]: 59%
- inhibition at 1 µM [2]: 100%
- inhibition at 1 µM (5-HT7 receptor): 100%
- σ [%] (σ receptors): 60%
- inhibition at 1 µM (α2C adrenergic receptors): 78%
- inhibition at 1 µM (receptors D4.4): 83%
- inhibition at 1 µM [3]: 57%
- inhibition at 1 µM (5-HT2A receptor): 100%

SMILES: O=S(=O)(NC1CN(CCOc2cccc3[nH]ccc23)C1)c1ccc(F)cc1 [Compound 46, 4-Fluoro-N-[1-[2-(1H-indol-4-yloxy)ethyl]azetidin-3-yl]benzene-sulphonamide]
- inhibition at 1 µM [1]: 7%
- inhibition at 1 µM [2]: 93%
- inhibition at 1 µM (5-HT7 receptor): 100%
- σ [%] (σ receptors): 15%
- inhibition at 1 µM (α2C adrenergic receptors): 101%
- inhibition at 1 µM (receptors D4.4): 72%
- inhibition at 1 µM [3]: 6%
- inhibition at 1 µM (5-HT2A receptor): 34%

SMILES: Cc1cccc(S(=O)(=O)NC2CN(CCOc3cccc4[nH]ccc34)C2)c1 [Compound 48, N-[1-[2-(1H-Indol-4-yloxy)ethyl]azetidin-3-yl]-3-methyl-benzenesulphonamide]
- inhibition at 1 µM [1]: -3%
- inhibition at 1 µM [2]: 84%
- inhibition at 1 µM (5-HT7 receptor): 98%
- σ [%] (σ receptors): 18%
- inhibition at 1 µM (α2C adrenergic receptors): 105%
- inhibition at 1 µM (receptors D4.4): 80%
- inhibition at 1 µM [3]: 21%
- inhibition at 1 µM (5-HT2A receptor): 88%

SMILES: O=S(=O)(NC1CN(CCOc2cccc3c2OCCO3)C1)c1cccc(F)c1 [Compound 89, N-[1-[2-(2,3-Dihydro-1,4-benzodioxan-8-yloxy)ethyl]azetidin-3-yl]-3-fluoro-benzenesulphonamide]
- SERT [%] [1]: 3%
- D2 [%] [2]: 24%
- 5-HT7 [%] (5-HT7 receptor): 96%
- σ [%] (σ receptors): 24%
- α2C [%] (α2C adrenergic receptors): 69%
- D4.4 [%] (receptors D4.4): 22%
- H1 [%] [3]: 3%
- 5-HT2A [%] (5-HT2A receptor): 74%
